# Assay results: patent publication US5688938A, “Calcium receptor-active molecules” (priority 1995, dated 1997)
# Columns and labels:
# [1] = hypocalcemic response in thyroidectomized rats; type: in vivo, rat; conditions: 3 to 100 mg/kg p.o.
# Source text: In subsequent studies, rats received a thyroidectomy (parathyroid glands intact). This surgical procedure effectively removed the C-cells secreting calcitonin and therefore enabled the relative contributions of PTH and calcitonin to the hypocalcemic effect of this compound to be determined. […] The only difference was that the rate of onset of the hypocalcemic response was somewhat delayed in thyroidectomized animals. […] Stimulatory effects of this compound on calcitonin secretion increases the rate of onset, but not the extent, of hypocalcemia.
# [2] = single oral doses of NPS R-568 in a healthy post-menopausal person; type: in vivo, human
# Source text: A range of single oral doses was used to assess safety, tolerance, and changes in primary hyperparathyroidism markers (e.g., plasma concentrations of parathyroid hormone and ionized serum calcium) and of serum calcitonin.
# [3] = test system: bovine parathyroid cells; assay: PTH secretion from bovine parathyroid cells; type: cell-based
# Protocol: In most experiments, cells loaded with fura-2 were also used in studies of PTH secretion.
# PTH secretion was measured by first suspending cells in PCB containing 0.5 mM CaCl2 and 0.1% BSA.
# [4] = net positive charge; type: physicochemical
# 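Throughout, for Serum Calcitonin: serum calcitonin in pg/mL.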
compound,measurement,setting,value
"COc1cccc([C@@H](C)NCCCc2ccccc2Cl)c1 [NPS R-568, (R)-(+)-N-[3-(2-chlorophenyl)propyl]-α-methyl-3-methoxybenzylamine]",hypocalcemic response in thyroidectomized animals,[1],hypocalcemic response equal in magnitude to that produced in sham-operated animals
same,Serum Calcitonin,"[2]; 20 mg oral, 0 h",3.2 pg/mL
same,Serum Ionized Calcium,"[2]; 20 mg oral, 0 h",1.26 mM
same,Serum PTH,"[2]; 20 mg oral, 0 h",31 pg/mL
same,Serum Calcitonin,"[2]; 20 mg oral, 0.5 h",3.8 pg/mL
same,Serum Ionized Calcium,"[2]; 20 mg oral, 0.5 h",1.26 mM
same,Serum PTH,"[2]; 20 mg oral, 0.5 h",23 pg/mL
same,Serum Calcitonin,"[2]; 20 mg oral, 1 h",3.2 pg/mL
same,Serum Ionized Calcium,"[2]; 20 mg oral, 1 h",1.26 mM
same,Serum PTH,"[2]; 20 mg oral, 1 h",18 pg/mL
same,Serum Calcitonin,"[2]; 20 mg oral, 2 h",4.5 pg/mL
same,Serum Ionized Calcium,"[2]; 20 mg oral, 2 h",1.26 mM
same,Serum PTH,"[2]; 20 mg oral, 2 h",24 pg/mL
same,Serum Calcitonin,"[2]; 20 mg oral, 4 h",4.2 pg/mL
same,Serum Ionized Calcium,"[2]; 20 mg oral, 4 h",1.26 mM
same,Serum PTH,"[2]; 20 mg oral, 4 h",34 pg/mL
same,Serum Calcitonin,"[2]; 20 mg oral, 8 h",3.9 pg/mL
same,Serum Ionized Calcium,"[2]; 20 mg oral, 8 h",1.26 mM
same,Serum PTH,"[2]; 20 mg oral, 8 h",34 pg/mL
same,Serum Calcitonin,"[2]; 20 mg oral, 12 h",3.2 pg/mL
same,Serum Ionized Calcium,"[2]; 20 mg oral, 12 h",1.23 mM
same,Serum PTH,"[2]; 20 mg oral, 12 h",48 pg/mL
same,Serum Calcitonin,"[2]; 20 mg oral, 24 h",3.6 pg/mL
same,Serum Ionized Calcium,"[2]; 20 mg oral, 24 h",1.29 mM
same,Serum PTH,"[2]; 20 mg oral, 24 h",32 pg/mL
same,Serum Calcitonin,"[2]; 240 mg oral, 0 h",5.8 pg/mL
same,Serum Ionized Calcium,"[2]; 240 mg oral, 0 h",1.26 mM
same,Serum PTH,"[2]; 240 mg oral, 0 h",29 pg/mL
same,Serum Calcitonin,"[2]; 240 mg oral, 0.5 h",4.8 pg/mL
same,Serum Ionized Calcium,"[2]; 240 mg oral, 0.5 h",1.26 mM
same,Serum PTH,"[2]; 240 mg oral, 0.5 h",18 pg/mL
same,Serum Calcitonin,"[2]; 240 mg oral, 1 h",6.5 pg/mL
same,Serum Ionized Calcium,"[2]; 240 mg oral, 1 h",1.25 mM
same,Serum PTH,"[2]; 240 mg oral, 1 h",6 pg/mL
same,Serum Calcitonin,"[2]; 240 mg oral, 2 h",7.5 pg/mL
same,Serum Ionized Calcium,"[2]; 240 mg oral, 2 h",1.23 mM
same,Serum PTH,"[2]; 240 mg oral, 2 h",6 pg/mL
same,Serum Calcitonin,"[2]; 240 mg oral, 4 h",6.1 pg/mL
same,Serum Ionized Calcium,"[2]; 240 mg oral, 4 h",1.19 mM
same,Serum PTH,"[2]; 240 mg oral, 4 h",10 pg/mL
same,Serum Calcitonin,"[2]; 240 mg oral, 8 h",4.7 pg/mL
same,Serum Ionized Calcium,"[2]; 240 mg oral, 8 h",1.16 mM
same,Serum PTH,"[2]; 240 mg oral, 8 h",27 pg/mL
same,Serum Calcitonin,"[2]; 240 mg oral, 12 h",5.3 pg/mL
same,Serum Ionized Calcium,"[2]; 240 mg oral, 12 h",1.18 mM
same,Serum PTH,"[2]; 240 mg oral, 12 h",35 pg/mL
same,Serum Calcitonin,"[2]; 240 mg oral, 24 h",8.3 pg/mL
same,Serum Ionized Calcium,"[2]; 240 mg oral, 24 h",1.23 mM
same,Serum PTH,"[2]; 240 mg oral, 24 h",34 pg/mL
same,Serum Calcitonin,"[2]; 400 mg oral, 0 h",3.4 pg/mL
same,Serum Ionized Calcium,"[2]; 400 mg oral, 0 h",1.24 mM
same,Serum PTH,"[2]; 400 mg oral, 0 h",33 pg/mL
same,Serum Calcitonin,"[2]; 400 mg oral, 0.5 h",4.0 pg/mL
same,Serum Ionized Calcium,"[2]; 400 mg oral, 0.5 h",1.26 mM
same,Serum PTH,"[2]; 400 mg oral, 0.5 h",13 pg/mL
same,Serum Calcitonin,"[2]; 400 mg oral, 1 h",6.0 pg/mL
same,Serum Ionized Calcium,"[2]; 400 mg oral, 1 h",1.25 mM
same,Serum PTH,"[2]; 400 mg oral, 1 h",9 pg/mL
same,Serum Calcitonin,"[2]; 400 mg oral, 2 h",7.1 pg/mL
same,Serum Ionized Calcium,"[2]; 400 mg oral, 2 h",1.22 mM
same,Serum PTH,"[2]; 400 mg oral, 2 h",8 pg/mL
same,Serum Calcitonin,"[2]; 400 mg oral, 4 h",5.2 pg/mL
same,Serum Ionized Calcium,"[2]; 400 mg oral, 4 h",1.19 mM
same,Serum PTH,"[2]; 400 mg oral, 4 h",11 pg/mL
same,Serum Calcitonin,"[2]; 400 mg oral, 8 h",3.8 pg/mL
same,Serum Ionized Calcium,"[2]; 400 mg oral, 8 h",1.13 mM
same,Serum PTH,"[2]; 400 mg oral, 8 h",20 pg/mL
same,Serum Calcitonin,"[2]; 400 mg oral, 12 h",3.7 pg/mL
same,Serum Ionized Calcium,"[2]; 400 mg oral, 12 h",1.15 mM
same,Serum PTH,"[2]; 400 mg oral, 12 h",31 pg/mL
same,Serum Calcitonin,"[2]; 400 mg oral, 24 h",3.0 pg/mL
same,Serum Ionized Calcium,"[2]; 400 mg oral, 24 h",1.22 mM
same,Serum PTH,"[2]; 400 mg oral, 24 h",31 pg/mL
same,effect on serum ionized calcium (summary),"[2]; human, higher oral doses",decrease in serum ionized calcium concentration
same,effect on plasma PTH (summary),"[2]; human, oral",transient dose-dependent decrease in plasma PTH concentration
same,effect on serum calcitonin (summary),"[2]; human, oral",no apparent change in serum calcitonin
NC[C@@H]1O[C@H](O[C@H]2[C@@H](O)[C@H](O[C@@H]3[C@@H](O)[C@H](N)C[C@H](N)[C@H]3O[C@H]3O[C@H](CN)[C@@H](O)[C@H](O)[C@H]3N)O[C@@H]2CO)[C@H](N)[C@@H](O)[C@@H]1O [Neomycin],inhibition of PTH secretion,[3],inhibited PTH secretion to the same extent as extracellular Ca^2+
same,Net (+) Charge,"[4]; Table 1, at physiological pH",+6
same,net positive charge at pH 7.3,[4]; pH 7.3,+6
